Earlier results in patent publication US20120034273A1, “EXTRUDATE HAVING SPICULAR ACTIVE SUBSTANCES” (Bayer Animal Health GmbH, priority 2008, published 2012).

Settings: stated in words, no test described

## O=C(C1CCCCC1)N1CC(=O)N2CCc3ccccc3C2C1 (stereo not shown) [praziquantel]
  solubility in water: poorly soluble in water
